Measurements published in US20230313299A1, “METHOD FOR DIAGNOSIS AND/OR PROGNOSIS OF LIVER DISEASE PROGRESSION AND RISK OF HEPATOCELLULAR CARCINOMA AND DISCOVERY OF THERAPEUTIC COMPOUNDS AND TARGETS TO TREAT LIVER DISEASE AND CANCER” (UNIVERSITÉ DE STRASBOURG, priority 2020, published 2023).
Entries after “also recorded” stand apart in the source; their conditions may differ.

How the values were obtained:
[1] = test system: Prognostic Epigenetic Signature (PES, 25-gene signature) in HCV Jc1-infected Huh7.5.1dif cells; assay: PES cell-based model: HCV-infected differentiated Huh7.5.1 cells, PES expression by RNA-Seq or nCounter; set-up: species or system human; conditions: JQ1 50 nM, Nizatidine 10 μM, Captopril 1 μM, Pioglitazone 1 μM
Experimental: Cell-based models. Huh7.5.1 and human stellate LX2 cells were cultured in Dulbecco's Modified Eagle Medium (DMEM) supplemented with 10% heat-decomplemented fetal bovine serum FBS, gentamycin (0.05 mg/mL) and non-essential amino acids (complete DMEM) at 37° C. with 5% CO2. For proliferation arrest and differentiation ([…] cells), Huh7.5.1 cells were cultured in complete DMEM supplemented 1% DMSO [5]. All cell lines were certified mycoplasma-free. To analyze the PES induction […] cells were infected with HCV Jc1 (genotype 2a/2a) for a total of 10 days. Cells were then treated with Captopril (1 μM), Nizatidine (10 μM), Pioglitazone (1 μM), JQ1 (50 nM). For the FFA model, Huh7.5.1^dif cells were cocultured with 20% LX-2 cells. Following co-culture for 3 days in DMEM supplemented with 10% heat-decomplemented FBS, gentamycin and 1% DMSO at 37° C. and 5% CO2, cells were incubated with FFA (800 μM oleic acid and 400 μM palmitic acid) for 72 h.
Analysis of gene expression of the prognostic epigenetic signature (PES) using nCounter expression or RNASeq analyses. Profiling of the PES was performed using Nanostring nCounter assay or RNASeq as described. Induction or suppression of the PES in gene expression data was determined as previously reported using the Gene Set Enrichment Analysis (GSEA), implemented in GenePattern genomic analysis toolkits. […]

[2] = test system: 1693-gene signature and 25-gene signature (PES); assay: Transcriptomic profiling (RNA-Seq, GSEA) of livers of DEN/CDAHFD mice; type: in vivo, mouse
Experimental: ChIPmentation based ChIP-Seq and RNA next-generation sequencing (NGS). ChIPmentation-based ChIP-Seq was performed as described. RNA-Seq was performed as described. Mouse RNA-Seq data was processed as described for patient's data but was instead mapped to the mouse genome mm10 and annotated using the Gencode vM15 gene annotation. Processing of ChIPmentation data was described, and data was partially derived from BioProject PRJNA506130. Since late stage fibrosis patients have the highest HCC risk, patient tissues from late stage fibrosis (F3 and F4) samples were included for all H3K27ac analyses as well as from the external CHC RNA-Seq dataset (GSE84346)[12]. Transcriptomic data for NASH patients was derived from external expression dataset (GSE115193)[13] and data for DAA-cured patients was published in BioProject PRJNA506130[6]. The RNA-Seq data from HCV-infected liver cells was published in (GSE126831)[14].
Analysis of gene expression of the prognostic epigenetic signature (PES) using nCounter expression or RNASeq analyses. Profiling of the PES was performed using Nanostring nCounter assay or RNASeq as described. Induction or suppression of the PES in gene expression data was determined as previously reported using the Gene Set Enrichment Analysis (GSEA), implemented in GenePattern genomic analysis toolkits. False discovery rate (FDR)<0.05 was regarded as statistically significant. […]

[3] = test system: DEN and CDAHFD-induced hepatocarcinogenesis; assay: DEN/CDAHFD NASH-fibrosis-HCC mouse model: liver disease, fibrosis and tumor burden; type: in vivo; conditions: DEN/CDAHFD mice
Description: FIG. 8. Reversal of the PES poor prognosis status in vivo by a bromodomain-4 inhibitor translates into improvement of liver disease and cancer prevention (A) Schematic representation of in vivo the proof-of-concept study using a mouse model of DEN and choline-deficient, L-amino acid-defined, high-fat diet (CDAHFD)-induced hepatocarcinogenesis. (B) Transcriptomic changes of genes with significant H3K27ac modifications from livers from patients with NASH and chronic hepatitis C (CHC) as explained in FIG. 1D (overlapping genes) and corresponding changes in vehicle or JQ1-treated DEN/CDAHFD mice. (C) Venn diagram showing epigenetically and transcriptionally altered genes in CHC/NASH patients and in DEN/CDAHFD mice, that were corrected by JQ1 treatment. Genes that harbor epigenetic and transcriptomic changes were identified in CHC/NASH patients and in DEN/CDAHFD mice. Among the changed genes, the inventors analyzed whether JQ1 could revert back their H3K27ac levels and their transcript expression levels. (H) GSEA enrichments of 1693-gene signature and 25-gene signature (PES) gene sets in data shown for JQ1-treated DEN/CDAHFD mice. (D) Improvement of liver disease and prevention of HCC. The global status corresponds to the difference between low risk- and high risk-gene expression. GSEA enrichments of 1693-gene signature and 25-gene signature (PES) gene sets in data shown for JQ1-treatment on panel B. The global status corresponds to the difference between low risk- and high risk-gene expression. […] Results are expressed as means±SEM. (F) Representative macroscopic photographs of livers (×1.5 magnified), H&E and Sirius red staining of liver sections from vehicle and JQ1-treated mice. Tumor nodules are indicated by an arrowhead and are delimited by dashed lines. […] Fibrosis stage was evaluated through quantitative digital analysis of whole-scanned liver sections (collagen proportional area (CPA)) in JQ1-treated (n=3) compared with JQ1-untreated (n=3) mice. Results are expressed as means±SD.
Example 5: Reversal of the PES poor prognosis status in vivo translates into improvement of liver disease, inhibition of fibrosis progession and cancer prevention. To investigate (1) whether the PES is modeled in animal models for liver disease and (2) reversal of the […] poor prognosis status by a compound correlates with improvement of liver disease and cancer prevention, the inventors studied the 1693 gene signature and the 25 gene subset expression in a NASH-fibrosis-HCC mouse model, in which the mice are treated with the BRD inhibitor JQ1 following development of liver disease. In this model a Choline-deficient high-fat-diet (CDHFD) diet combined with DEN, a chemical carcinogen, induces liver fibrosis progressing to HCC. […] Mice were treated with JQ1 after 6 weeks of CDAHFD feeding when liver disease developed (FIG. 8A).

SMILES	Reversal of PES (25-gene signature) from HCC high risk, poor prognosis status to HCC low risk, good prognosis status [1]	GSEA enrichment of 1693-gene signature and 25-gene signature (PES) gene sets after treatment [2]	Expression of H3K27ac-altered genes in patients reverted by treatment ([2]; 1007 out of 1693 genes) [%]	Tumor burden in vivo [3]	Liver fibrosis measured by collagen proportionate area (CPA) ([3]; treated n=3 vs untreated n=3)	Body weight ([3]; treated n=8 vs untreated n=8)	Liver weight ([3]; treated n=8 vs untreated n=8)	Number of tumor nodules ([3]; treated n=8 vs untreated n=8)
Cc1sc2c(c1C)C(c1ccc(Cl)cc1)=N[C@@H](CC(=O)OC(C)(C)C)c1nnc(C)n1-2 [JQ1]	Reversal of the poor prognosis/HCC high risk genes to good prognosis/HCC low risk expression; also recorded: reverted the 25-gene signature (PES)	correspondingly (i.e., reversely) enriched	59	significantly reduces tumor burden	efficiently reduces liver fibrosis; also recorded: significantly (p<0.05) reduced	stable; also recorded: without altering	significantly reduced	reduced; also recorded: overall decrease in their number
CNC(=C[N+](=O)[O-])NCCSCc1csc(CN(C)C)n1 [Nizatidine]	Reversal of the poor prognosis/HCC high risk genes to good prognosis/HCC low risk expression	–	–	–	–	–	–	–
